Read-outs that look alike come from different tables or passages of the source.
Target: T1, F508delCFTR (Homo sapiens, UniProt P13569, DEL508-508)
T1 construct: expressed in transfected cells; host or cells: CFBE41o- human lung-derived epithelial cells (CFBE4lo-F508delCFTR-HRP), doxycycline-inducible
Test: Cell Surface Expression-Horse Radish Peroxidase (CSE-HRP) Assay;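 for Maximum % activity (with co-corrector): co-corrector and positive control are both the same reference corrector at 2 µM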;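 for Maximum % activity (without co-corrector): percent of the 2 µM on-plate positive control corrector response above DMSO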
Type: cell-based
Conditions: for Emax / Maximum % activity (with co-corrector): maximum at any tested concentration, normalized to on-plate positive control; for Emax: read-out: Maximum % activity (without co-corrector)

[1] = test compound without co-corrector
[2] = test compound without co-corrector, read-out: EC50 (without co-corrector)
[3] = with co-corrector (2 μM of 3-[(2R,4R)-4-({[1-(2,2-difluoro-1,3-benzodioxol-5-yl)cyclopropyl]carbonyl}amino)-7-methoxy-3,4-dihydro-2H-chromen-2-yl]benzoic acid)
[4] = with co-corrector (2 μM of 3-[(2R,4R)-4-({[1-(2,2-difluoro-1,3-benzodioxol-5-yl)cyclopropyl]carbonyl}amino)-7-methoxy-3,4-dihydro-2H-chromen-2-yl]benzoic acid), read-out: EC50 (with co-corrector)

T1 sequence (P13569 with tags, fused parts or gaps DEL508-508): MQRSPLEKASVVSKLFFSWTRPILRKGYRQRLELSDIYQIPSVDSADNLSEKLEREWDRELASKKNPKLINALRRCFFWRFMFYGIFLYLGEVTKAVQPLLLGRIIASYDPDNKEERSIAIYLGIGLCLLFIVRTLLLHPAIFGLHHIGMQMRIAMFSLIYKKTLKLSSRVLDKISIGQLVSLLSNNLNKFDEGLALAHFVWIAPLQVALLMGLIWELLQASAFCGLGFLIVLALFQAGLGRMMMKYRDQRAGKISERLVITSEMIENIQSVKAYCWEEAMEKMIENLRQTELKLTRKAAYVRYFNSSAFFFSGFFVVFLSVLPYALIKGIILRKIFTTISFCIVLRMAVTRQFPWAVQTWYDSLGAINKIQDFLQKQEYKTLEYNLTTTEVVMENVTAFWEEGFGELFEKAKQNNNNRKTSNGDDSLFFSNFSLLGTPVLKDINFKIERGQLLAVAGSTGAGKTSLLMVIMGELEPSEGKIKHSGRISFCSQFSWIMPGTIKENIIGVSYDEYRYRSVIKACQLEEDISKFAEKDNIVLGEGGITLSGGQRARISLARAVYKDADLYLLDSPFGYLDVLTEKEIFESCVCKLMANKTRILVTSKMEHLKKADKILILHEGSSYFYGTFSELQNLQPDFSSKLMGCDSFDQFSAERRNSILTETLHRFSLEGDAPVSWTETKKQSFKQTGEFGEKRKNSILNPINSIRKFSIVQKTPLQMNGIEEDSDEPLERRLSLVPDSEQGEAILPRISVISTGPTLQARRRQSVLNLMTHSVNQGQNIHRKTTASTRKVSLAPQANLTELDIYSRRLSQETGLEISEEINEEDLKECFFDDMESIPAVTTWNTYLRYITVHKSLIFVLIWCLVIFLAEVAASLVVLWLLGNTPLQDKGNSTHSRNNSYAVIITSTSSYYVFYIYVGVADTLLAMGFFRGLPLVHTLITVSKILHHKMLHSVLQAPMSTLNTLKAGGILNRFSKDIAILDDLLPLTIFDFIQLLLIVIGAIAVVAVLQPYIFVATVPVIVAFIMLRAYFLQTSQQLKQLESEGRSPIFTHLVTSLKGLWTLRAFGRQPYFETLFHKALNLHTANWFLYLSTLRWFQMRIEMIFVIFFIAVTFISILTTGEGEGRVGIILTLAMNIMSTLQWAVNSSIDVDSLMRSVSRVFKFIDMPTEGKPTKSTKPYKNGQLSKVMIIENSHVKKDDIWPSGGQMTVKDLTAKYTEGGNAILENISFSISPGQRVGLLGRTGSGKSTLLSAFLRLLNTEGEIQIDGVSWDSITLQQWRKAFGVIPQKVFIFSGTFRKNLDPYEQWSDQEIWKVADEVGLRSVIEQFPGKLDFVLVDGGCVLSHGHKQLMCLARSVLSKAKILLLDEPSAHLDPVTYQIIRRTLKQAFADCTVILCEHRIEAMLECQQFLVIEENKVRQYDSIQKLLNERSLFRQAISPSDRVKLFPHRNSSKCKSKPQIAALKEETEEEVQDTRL

SMILES | Emax [1] | EC50 [2] | Maximum % activity (with co-corrector) [3] | EC50 [4] | Maximum % activity (with co-corrector) (with co-corrector (2 μM))
COc1ncc(C(F)(F)F)cc1CN[C@H]1[C@H](C(C)(C)C)[C@@H](C(=O)O)N(C(=O)C2CCOCC2)[C@H]1c1ccccc1C(C)C [II-591] | > 200% | 1 to 10 µM | +++ (≥350) | < 1 µM | –
COc1ncc(C(F)(F)F)cc1CN[C@H]1[C@H](C(C)(C)C)[C@@H](C(=O)O)N(C(=O)OC(C)C)[C@H]1c1cccnc1N1CCC1 [II-592] | > 200% | 1 to 10 µM | +++ (≥350) | 1 to 10 µM | –
COc1ccc(C2(C)CCC2)cc1CN[C@H]1[C@H](C(C)(C)C)[C@@H](C(=O)O)N(C(=O)[C@@H]2CCCO2)[C@H]1c1ccccc1C(C)C [II-593] | > 200% | 1 to 10 µM | +++ (≥350) | < 1 µM | –
COc1ncc(Br)cc1CN[C@H]1[C@H](C(C)(C)C)[C@@H](C(=O)O)N(C(=O)[C@@H]2CCCO2)[C@H]1c1ccccc1C(C)C [II-594] | > 200% | 1 to 10 µM | +++ (≥350) | < 1 µM | –
COc1ccc(C(F)(F)F)cc1CN[C@H]1[C@H](C(C)(C)C)[C@@H](C(=O)O)N(C(=O)[C@@H]2CCCO2)[C@H]1c1ccccc1C(C)C [II-595] | > 200% | < 1 µM | +++ (≥350) | < 1 µM | –
COc1ncc(C(F)(F)F)cc1CN[C@H]1[C@H](C(C)(C)C)[C@@H](C(=O)O)N(C(=O)[C@@H]2CCCO2)[C@H]1c1cccnc1N(C)C [II-596] | < 100% | 1 to 10 µM | ++ (≥150 and <350) | 1 to 10 µM | –
COc1ncc(C2CCC2)cc1CN[C@H]1[C@H](C(C)(C)C)[C@@H](C(=O)O)N(C(=O)[C@@H]2CCCO2)[C@H]1c1ccccc1C(F)F [II-597] | 100 to 200% | 1 to 10 µM | +++ (≥350) | 1 to 10 µM | –
COc1nc2ccccc2cc1CN[C@H]1[C@H](C(C)(C)C)[C@@H](C(=O)O)N(C(=O)C2CCOCC2)[C@H]1c1ccccc1C(C)C [II-598] | > 200% | 1 to 10 µM | +++ (≥350) | < 1 µM | –
COc1nc2ccccc2cc1CN[C@H]1[C@H](C(C)(C)C)[C@@H](C(=O)O)N(C(=O)[C@@H]2CCCO2)[C@H]1c1cccnc1N(C)C [II-599] | < 100% | 1 to 10 µM | ++ (≥150 and <350) | 1 to 10 µM | –
COc1nc2ccccc2cc1CN[C@H]1[C@H](C(C)(C)C)[C@@H](C(=O)O)N(C(=O)C2CCOCC2)[C@H]1c1cccnc1N(C)C [II-600] | < 100% | 1 to 10 µM | ++ (≥150 and <350) | 1 to 10 µM | –
COc1ccc(C(F)(F)F)cc1CN[C@@H]1[C@@H](C(C)(C)C)[C@H](C(=O)O)N(C(=O)[C@H](OC)c2ccccc2)[C@@H]1c1ccccc1 [III-68] | < 100% | > 10 µM | ++ (≥150 and <350) | 1 to 10 µM | –
CO[C@@H](C(=O)N1[C@H](c2ccccc2)[C@H](Nc2cc(C(F)(F)F)cc(C)n2)[C@@H](C(C)(C)C)[C@@H]1C(=O)O)c1ccccc1 [III-75] | < 100% | 1 to 10 µM | ++ (≥150 and <350) | 1 to 10 µM | –
CO[C@@H](C(=O)N1[C@H](C(=O)O)[C@@H](C(C)(C)C)[C@H](Nc2cc(C(F)(F)F)cc(C)n2)[C@@H]1c1ccccc1)c1ccccc1 [III-78] | < 100% | > 10 µM | ++ (≥150 and <350) | 1 to 10 µM | –
COc1cc(C(F)(F)F)ccc1CN[C@@H]1[C@@H](C(C)(C)C)[C@H](C(=O)O)N(C(=O)C2CCCCC2)[C@@H]1c1ccccc1OC [III-95] | < 100% | > 10 µM | – | 1 to 10 µM | ++ (≥150 and <350)
COc1ccc(C(F)(F)F)cc1CN[C@@H]1[C@@H](C(C)(C)C)[C@H](C(=O)O)N(C(=O)[C@H](OC)c2ccccc2)[C@@H]1c1ccccc1N(C)C [III-98] | < 100% | > 10 µM | – | 1 to 10 µM | ++ (≥150 and <350)
COc1ccc(Cl)cc1CN[C@@H]1[C@@H](C(C)(C)C)[C@H](C(=O)O)N(C(=O)[C@H](OC)c2ccccc2)[C@@H]1c1ccccc1N(C)C [III-99] | < 100% | > 10 µM | – | 1 to 10 µM | ++ (≥150 and <350)
COc1ccc(C(F)(F)F)cc1CN[C@H]1[C@H](C(C)(C)C)[C@@H](C(=O)O)N(C(=O)[C@](OC)(c2ccccc2)C(F)(F)F)[C@H]1c1ccccc1 [III-100] | < 100% | > 10 µM | – | 1 to 10 µM | ++ (≥150 and <350)

From patent US20180099931A1 (AbbVie S.à.r.l., priority 2016, published 2018)
